Among the data in patent publication US8372865B2, “Dihydropyridone amides as P2X7 modulators” (Roche Palo Alto LLC, priority 2008, dated 2013) are pKi values, retold here.

For this assay, the target named is T1, P2X7 receptor (UniProt Q99572).
T1 sequence (Q99572 1-595): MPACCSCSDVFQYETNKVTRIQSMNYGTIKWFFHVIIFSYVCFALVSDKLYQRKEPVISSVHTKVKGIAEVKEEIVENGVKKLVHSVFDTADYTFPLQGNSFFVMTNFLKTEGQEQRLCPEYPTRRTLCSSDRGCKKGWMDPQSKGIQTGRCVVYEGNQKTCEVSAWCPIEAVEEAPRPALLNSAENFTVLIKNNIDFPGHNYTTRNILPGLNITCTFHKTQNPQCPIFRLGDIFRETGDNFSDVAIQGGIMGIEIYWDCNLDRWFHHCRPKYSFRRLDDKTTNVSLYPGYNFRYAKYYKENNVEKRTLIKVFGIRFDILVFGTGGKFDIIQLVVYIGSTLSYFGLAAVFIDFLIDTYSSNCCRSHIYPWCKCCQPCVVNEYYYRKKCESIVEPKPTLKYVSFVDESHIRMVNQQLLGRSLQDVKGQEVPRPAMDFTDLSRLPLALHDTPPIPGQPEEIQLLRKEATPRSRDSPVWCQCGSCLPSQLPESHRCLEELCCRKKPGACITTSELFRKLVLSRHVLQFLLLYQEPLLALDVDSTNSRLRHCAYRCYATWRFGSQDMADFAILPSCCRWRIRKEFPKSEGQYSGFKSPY
In words: pKi of Table 1 (assay not stated). Format: cell-based. The protocol: Intracellular Calcium Flux (FLIPR) Assay
Stock solutions of compounds were prepared from powders as a 10 mM DMSO stock solution. These solutions were stored at RT during the two week period of these experiments to prevent freeze-thaw of the DMSO stocks. The DMSO stocks were added to the appropriate assay buffer at a concentration of 10 μM, and then diluted serially to the final concentrations that were tested. […] The aqueous solutions of compounds as well as ATP (Sigma A7699) and BzATP (Sigma B6396) were prepared fresh for each day of experiment.
1321N1 cells stably expressing the full length human P2X7 gene (1321N1-hP2X7) and HEK293 cells stably expressing the full length rat P2X7 gene (HEK293-rP2X7) were obtained from the Roche Cell Culture Facility. 1321N1-hP2X7 cells were grown in Dulbecco's Modified Eagle's Medium (DMEM) high glucose supplemented with 10% FBS and 250 μg/mL G418. HEK293-rP2X7 cells were grown in DMEM/F-12 supplemented with 10% FBS, 1 mM CaCl2, 2 mM MgCl2, 2 mM L-Glutamine and 500 μg/ml G418. Cells were split such that they never became>70% confluent.
On the day prior to the experiment, 1321N1-hP2X7 or HEK293-rP2X7 cells were released into suspension with calcium-free PBS+Versene and washed by centrifugation with calcium-free PBS to remove the Versene. Cells were resuspended in growth medium at a density of 2.5×10^5 cells/mL and seeded into black walled, clear bottom 96 well plates (50,000 cells/well) approximately 18 hr prior to intracellular calcium flux experiments.
On the day of the experiment, plates were washed with FLIPR buffer (calcium- and magnesium-free Hank's Balanced Salt Solution (HBSS) supplemented with 10 mM Hepes, 2.5 mM probenecid and 2 mM calcium chloride) using a BIO-TEK 96 channel plate washer and incubated with […] fluo-3 dye at 37° C. for one hr. The dye was then removed by plate washing and the cells were allowed to equilibrate for 20 min at room temperature with antagonist or vehicle (FLIPR buffer). Agonist (100 μM BzATP final concentration for hP2X7; 5 μM BzATP final concentration or rP2X7) was added online with the FLIPR and fluorescence measurements made at 1 sec intervals for 60 sec followed by 3 sec intervals for a further 4 min (5 min total). A final addition of 5 μM ionomycin was made and the maximal BzATP-evoked fluorescence normalized to the maximal ionomycin-evoked fluorescence.

Usually pKi stands for the negative decadic logarithm of the Ki, by convention in mol/L. High values mean a small Ki, low ones a large Ki. As for `CCc1cc2c(cc1NC(=O)C1=CNC(=O)C[C@H]1c1cccc(F)c1)N(C)C(=O)CO2` [Compound 26, (S)-4-(3-Fluoro-phenyl)-6-oxo-1,4,5,6-tetrahydro-pyridine-3-carboxylic acid (7-ethyl-4-methyl-3-oxo-3,4-dihydro-2H-benzo[1,4]oxazin-6-yl)-amide], the pKi is reported as 7.125.

Take `Cc1ccc2ncccc2c1NC(=O)C1=CNC(=O)C[C@H]1c1ccc(F)cc1` [Compound 27, (S)-4-(4-Fluoro-phenyl)-6-oxo-1,4,5,6-tetrahydro-pyridine-3-carboxylic acid (6-methyl-quinolin-5-yl)-amide]: the pKi worked out at 7.64.

Turning to `Cc1cc2cnn(CCO)c2cc1NC(=O)C1=CNC(=O)C[C@H]1c1ccc(F)cc1` [Compound 28, (S)-4-(4-Fluoro-phenyl)-6-oxo-1,4,5,6-tetrahydro-pyridine-3-carboxylic acid [1-(2-hydroxy-ethyl)-5-methyl-1H-indazol-6-yl]-amide], the negative-log Ki (pKi) is on record as 7.645.

Compound `Cc1cc2cc(C)n(CCO)c2cc1NC(=O)C1=CNC(=O)C[C@H]1c1ccc(F)cc1` [Compound 29, (S)-4-(4-Fluoro-phenyl)-6-oxo-1,4,5,6-tetrahydro-pyridine-3-carboxylic acid [1-(2-hydroxy-ethyl)-2,5-dimethyl-1H-indol-6-yl]-amide] came in with a negative logarithm of the Ki (pKi) of 6.285.

`Cc1cc2c(C)cn(CCO)c2cc1NC(=O)C1=CNC(=O)C[C@H]1c1ccc(F)cc1` [Compound 30, (S)-4-(4-Fluoro-phenyl)-6-oxo-1,4,5,6-tetrahydro-pyridine-3-carboxylic acid [1-(2-hydroxy-ethyl)-3,5-dimethyl-1H-indol-6-yl]-amide] showed a negative-log Ki (pKi) of 6.89.

For the compound `CCc1cc2c(cc1NC(=O)C1=CNC(=O)C[C@H]1c1ccc(F)cc1)N(C)C(=O)CC2` [Compound 31, (S)-4-(4-Fluoro-phenyl)-6-oxo-1,4,5,6-tetrahydro-pyridine-3-carboxylic acid (6-ethyl-1-methyl-2-oxo-1,2,3,4-tetrahydro-quinolin-7-yl)-amide], the pKi was determined as 6.805.

`CC1=C(C(=O)Nc2ccc3[nH]ncc3c2)C(c2ccc(F)cc2)CC(=O)N1` (stereo not shown) [Compound 32, 4-(4-Fluoro-phenyl)-2-methyl-6-oxo-1,4,5,6-tetrahydro-pyridine-3-carboxylic acid (1H-indazol-5-yl)-amide] registered a negative logarithm of the Ki (pKi) of 5.14.

`Cc1cc2c(cc1NC(=O)C1=CNC(=O)C[C@H]1c1ccc(F)cc1)N(CCO)C(=O)CC2` [Compound 33, (S)-4-(4-Fluoro-phenyl)-6-oxo-1,4,5,6-tetrahydro-pyridine-3-carboxylic acid [1-(2-hydroxy-ethyl)-6-methyl-2-oxo-1,2,3,4-tetrahydro-quinolin-7-yl]-amide] came in with a negative logarithm of the Ki (pKi) of 6.285.

The compound `O=C1C[C@@H](c2ccc(F)cc2)C(C(=O)Nc2cc3c(cc2Br)N(CCO)C(=O)CC3)=CN1` [Compound 34, (S)-4-(4-Fluoro-phenyl)-6-oxo-1,4,5,6-tetrahydro-pyridine-3-carboxylic acid [7-bromo-1-(2-hydroxy-ethyl)-2-oxo-1,2,3,4-tetrahydro-quinolin-6-yl]-amide] registered a negative logarithm of the Ki (pKi) of 6.785.

As for `CCc1c(NC(=O)C2=CNC(=O)C[C@H]2c2ccc(F)cc2)ccc2nc(C)ccc12` [Compound 35, (S)-4-(4-Fluoro-phenyl)-6-oxo-1,4,5,6-tetrahydro-pyridine-3-carboxylic acid (5-ethyl-2-methyl-quinolin-6-yl)-amide], the negative logarithm of the Ki (pKi) stood at 7.18.

For the compound `Cc1cc2c(cc1NC(=O)C1=CNC(=O)C[C@H]1c1ccc(F)cc1)NC(=O)CO2` [Compound 36, (S)-4-(4-Fluoro-phenyl)-6-oxo-1,4,5,6-tetrahydro-pyridine-3-carboxylic acid (7-methyl-3-oxo-3,4-dihydro-2H-benzo[1,4]oxazin-6-yl)-amide], the pKi is 5.56.

For the compound `O=C1C[C@@H](c2ccc(F)cc2)C(C(=O)Nc2cc3c(cc2Br)OCC(=O)N3CCO)=CN1` [Compound 38, (S)-4-(4-Fluoro-phenyl)-6-oxo-1,4,5,6-tetrahydro-pyridine-3-carboxylic acid [7-bromo-4-(2-hydroxy-ethyl)-3-oxo-3,4-dihydro-2H-benzo[1,4]oxazin-6-yl]-amide], the pKi was determined as 5.25.

In turn, `Cc1cc2c(cc1NC(=O)C1=CNC(=O)C[C@H]1c1ccc(F)cc1)N(CCO)C(=O)CO2` [Compound 39, (S)-4-(4-Fluoro-phenyl)-6-oxo-1,4,5,6-tetrahydro-pyridine-3-carboxylic acid [4-(2-hydroxy-ethyl)-7-methyl-3-oxo-3,4-dihydro-2H-benzo[1,4]oxazin-6-yl]-amide] returned a pKi of 5.48.

For `CCc1cc2c(cc1NC(=O)C1=CNC(=O)C[C@H]1c1ccc(F)cc1)N(CCO)C(=O)CO2` [Compound 40, (S)-4-(4-Fluoro-phenyl)-6-oxo-1,4,5,6-tetrahydro-pyridine-3-carboxylic acid [7-ethyl-4-(2-hydroxy-ethyl)-3-oxo-3,4-dihydro-2H-benzo[1,4]oxazin-6-yl]-amide], the negative-log Ki (pKi) worked out at 6.485.

Regarding `O=C1C[C@@H](c2ccc(F)cc2)C(C(=O)Nc2cc3c(cc2Br)CCC(=O)N3)=CN1` [Compound 41, (S)-4-(4-Fluoro-phenyl)-6-oxo-1,4,5,6-tetrahydro-pyridine-3-carboxylic acid (6-bromo-2-oxo-1,2,3,4-tetrahydro-quinolin-7-yl)-amide], the negative-log Ki (pKi) is on record as 5.145.

With `CCc1cc2cnn(C)c2cc1NC(=O)C1=CNC(=O)C[C@H]1c1ccc(F)cc1` [Compound 42, (S)-4-(4-Fluoro-phenyl)-6-oxo-1,4,5,6-tetrahydro-pyridine-3-carboxylic acid (5-ethyl-1-methyl-1H-indazol-6-yl)-amide], the negative-log Ki (pKi) came to 7.74.

Compound `Cc1cc2c(cc1NC(=O)C1=CNC(=O)C[C@H]1c1ccc(F)cc1)CCC(=O)N2C` [Compound 43, (S)-4-(4-Fluoro-phenyl)-6-oxo-1,4,5,6-tetrahydro-pyridine-3-carboxylic acid (1,7-dimethyl-2-oxo-1,2,3,4-tetrahydro-quinolin-6-yl)-amide] gave a pKi of 7.505.

With `CCc1cc2cnn(C)c2cc1NC(=O)C1=CNC(=O)C[C@H]1c1cccc(F)c1` [Compound 44, (S)-4-(3-Fluoro-phenyl)-6-oxo-1,4,5,6-tetrahydro-pyridine-3-carboxylic acid (5-ethyl-1-methyl-1H-indazol-6-yl)-amide], the negative-log Ki (pKi) turned out to be 7.825.

Take `CCc1cc2cnn(CCO)c2cc1NC(=O)C1=CNC(=O)C[C@H]1c1cccc(F)c1` [Compound 45, (S)-4-(3-Fluoro-phenyl)-6-oxo-1,4,5,6-tetrahydro-pyridine-3-carboxylic acid [5-ethyl-1-(2-hydroxy-ethyl)-1H-indazol-6-yl]-amide]: the negative logarithm of the Ki (pKi) came out at 7.7.

Compound `CCc1c(NC(=O)C2=CNC(=O)C[C@H]2c2cccc(F)c2)ccc2nc(C)ccc12` [Compound 46, (S)-4-(3-Fluoro-phenyl)-6-oxo-1,4,5,6-tetrahydro-pyridine-3-carboxylic acid (5-ethyl-2-methyl-quinolin-6-yl)-amide] gave a negative-log Ki (pKi) of 7.635.

On to `O=C1C[C@@H](c2ccc(F)cc2)C(C(=O)Nc2cccc3ccncc23)=CN1` [Compound 47, (S)-4-(4-Fluoro-phenyl)-6-oxo-1,4,5,6-tetrahydro-pyridine-3-carboxylic acid isoquinolin-8-ylamide], for which the negative-log Ki (pKi) is recorded as 5.29.

On to `Cc1cc2c(NC(=O)C3=CNC(=O)C[C@H]3c3ccc(F)cc3)cccc2nn1` [Compound 48, (S)-4-(4-Fluoro-phenyl)-6-oxo-1,4,5,6-tetrahydro-pyridine-3-carboxylic acid (3-methyl-cinnolin-5-yl)-amide], for which the pKi is recorded as 5.425.
